Data reported in ChEMBL document CHEMBL3045773, “Synthesis and structureactivity relationship of acylthiourea derivatives as inhibitors of microsomal epoxide hydrolase” (Med Chem Res, 2012).

Each compound was assayed against T1, Epoxide hydrolase 1 (Homo sapiens, UniProt P07099) (assay: Inhibition of microsomal epoxide hydrolase (unknown origin) using 7-(2-(Oxiran-2-yl)ethoxy) Resorufin by fluorometric method).
T1 sequence (P07099 whole entry): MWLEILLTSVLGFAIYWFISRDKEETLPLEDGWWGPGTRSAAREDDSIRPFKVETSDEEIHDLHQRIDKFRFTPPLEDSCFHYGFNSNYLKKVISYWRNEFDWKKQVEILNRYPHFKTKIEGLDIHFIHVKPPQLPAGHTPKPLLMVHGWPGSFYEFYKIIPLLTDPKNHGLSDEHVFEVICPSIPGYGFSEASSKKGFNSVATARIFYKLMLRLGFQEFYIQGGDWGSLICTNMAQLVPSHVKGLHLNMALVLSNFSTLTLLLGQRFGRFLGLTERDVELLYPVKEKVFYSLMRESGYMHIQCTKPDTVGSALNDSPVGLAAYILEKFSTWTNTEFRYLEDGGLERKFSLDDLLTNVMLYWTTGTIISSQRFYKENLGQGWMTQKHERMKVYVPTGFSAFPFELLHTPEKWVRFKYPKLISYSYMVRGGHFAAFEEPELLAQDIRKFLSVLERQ
Work on `CC(=O)NC(=S)Nc1ccccc1C` yielded an IC50 of 1500 nM. `CC(=O)NC(=S)Nc1ccc(Br)cc1` was tested, and the IC50 was 1640 nM. Compound `CC(C)(C)NC(=S)NC(=O)c1ccccc1` has an IC50 of 1580 nM. `COc1cc(C)ccc1NC(=S)NC(C)=O` was tested, and the IC50 was 1690 nM. `CC(=O)NC(=S)Nc1ccncc1` showed an IC50 of 2070 nM. In the case of `CC(=O)NC(=S)Nc1ccc(Oc2ccccc2)cc1`, the IC50 is reported as 3700 nM. `O=C(NC(=S)Nc1ccc(N2CCOCC2)cc1)c1ccccc1` was tested, and the IC50 was 1720 nM. With `COc1cc([N+](=O)[O-])ccc1NC(=S)NC(C)=O` the IC50 was 1870 nM. Compound `CCOc1ccc(OCC)c(NC(=S)NC(C)=O)c1` has an IC50 of 2530 nM. In the case of `O=C(NC(=S)Nc1ccc(Br)cc1)c1ccccc1`, the IC50 is reported as 3440 nM. In the case of `O=C(NC(=S)Nc1ccncc1)c1ccccc1`, the IC50 is reported as 2280 nM. Work on `CC(=O)NC(=S)NC12CC3CC(CC(C3)C1)C2` yielded an IC50 of 1120 nM. Work on `COc1cc([N+](=O)[O-])ccc1NC(=S)NC(=O)c1ccccc1` yielded an IC50 of 1650 nM. Work on `Cc1ccccc1NC(=S)NC(=O)c1ccccc1` yielded an IC50 of 3540 nM. With `O=C(NC(=S)Nc1ccc(Br)c(C(F)(F)F)c1)c1ccccc1` the IC50 was 1170 nM. `CC(=O)NC(=S)Nc1ccc(Cl)cc1` showed an IC50 of 2210 nM. `CC(=O)NC(=S)Nc1ccc(Br)c2ccccc12` gave an IC50 of 2420 nM. `O=C(NC(=S)NC12CC3CC(CC(C3)C1)C2)c1ccccc1` showed an IC50 of 1010 nM. `O=C(NC(=S)Nc1ccc(Oc2ccccc2)cc1)c1ccccc1` gave an IC50 of 2100 nM. `CC(=O)NC(=S)Nc1ccc(N2CCOCC2)cc1` gave an IC50 of 2590 nM. `O=C(Nc1ccccc1)Nc1ccccc1` gave an IC50 of 1200 nM. `CC(=O)NC(=S)Nc1ccc(Br)c(C(F)(F)F)c1` gave an IC50 of 1390 nM. `O=C(NC(=S)Nc1ccc(Br)c2ccccc12)c1ccccc1` showed an IC50 of 1880 nM. `O=C(NC(=S)Nc1cc(Cl)ccc1Cl)c1ccccc1` showed an IC50 of 2150 nM. Compound `CC(=O)NC(=S)NC(C)(C)C` has an IC50 of 2700 nM. `CCOc1ccc(OCC)c(NC(=S)NC(=O)c2ccccc2)c1` showed an IC50 of 2040 nM. Compound `CC(=O)NC(=S)Nc1ccccc1` [N-(PHENYLCARBAMOTHIOYL)ACETAMIDE] has an IC50 of 2350 nM. For `O=C(NC(=S)Nc1ccccc1)c1ccccc1` [N-(PHENYLCARBAMOTHIOYL)BENZAMIDE], the IC50 was 1290 nM. With `COc1cc(C)ccc1NC(=S)NC(=O)c1ccccc1` the IC50 was 2540 nM. In the case of `O=C(NC(=S)Nc1ccc(Cl)cc1)c1ccccc1`, the IC50 is reported as 1640 nM. For `CC(=O)NC(=S)Nc1cc(Cl)ccc1Cl`, the IC50 was 2290 nM.
